The values that follow come from US9788549B2, “Broad spectrum disinfectant” (DI[…] LLC, priority 2014, dated 2017).

For data set [1] the following is noted: atmospheric pressure, 20° C.; cited from earlier work.
For data set [2] the following is noted: solution has the proper amount of sodium polyphosphate.

Regarding `[O][Cl+][O-]` [Chlorine dioxide], the solubility in water entry in data set [1] is listed as “approximately 70 g/l”. In data set [2], the “stability of ClO2 in solution” value was “remain stable for years”.
